Measured values: patent EP0171942A1, “Antitumor composition” (Takeda Chemical Industries, Ltd., priority 1984, dated 1986)

How the values were obtained:
[1] = test system: Lewis lung carcinoma; assay: Antitumor effect test using Lewis lung carcinoma (subcutaneous tumor fragment implant, tumor weight on day 10); assay type: in vivo, mouse; settings: oral, once daily for 7 days
Procedure: The antitumor composition according to the invention was tested for antitumor effect using Lewis lung carcinoma. Thus, each female Fl mouse [C57BL/6 x DBA/2] weighing 18 ± 1 .g was implanted with a tumor fragment about 2 mm^3 in volume subcutaneously into the axillary site using a trocar. Starting from 24 hours after tumor implantation, the above- mentioned compound 4 and uracil were orally administered combinedly in the proportion given below in Table 1 once daily for 7 days, and the antitumor effect was compared with that attained when each of them was administered singly. The sample agent was suspended in a 0.5% solution of gum arabic in physiological saline just before daily administration such that the dose amounted to 0.2 ml/20 g body weight. Ten days after tumor implantation, the tumor was excised and weighed, and the average tumor weight ratio (T/C %) between the dosed group (T, group of 5 animals) and the control group (C, group of 10 animals) was calculated. The daily dose was expressed in terms of number of moles per kilogram of body weight (mM/kg).

[2] = test system: colon carcinoma 26; assay: Antitumor effect test using colon carcinoma 26 (subcutaneous tumor fragment implant, tumor weight on day 10); assay type: in vivo, mouse; settings: oral, once a day for 7 days
Procedure: The antitumor composition according to the invention was further tested for antitumor effect using colon carcinoma 26. Thus, each female F1 mouse [BALB/c x DBA/2] weighing 21 ± 1 g was subcutaneously implanted with a tumor fragment (about 2 mm3) into the axillary site using a trocar. Starting from 24 hours after tumor implantation, the above- mentioned compound 4 and uracil were orally administered combinedly on the proportion given below in Table 2 once a day for 7 days, and the antitumor effect was compared with that attained by single administration of either of them. The test agent was suspended in a 0.5% solution of gum arabic in physiological saline daily just before administration such that the dose amounted to 0.2 ml/20 g body weight. Ten days after tumor implantation, the tumor was excised and weighed, and the average tumor weight ratio (T/C %) between the dosed group (T, group of 5 animals) and the control group (C, group of 20 animals) was calculated. The daily dose was expressed in terms of number of moles per kilogram of body weight (mM/kg).

[3] = compound 4 0.1 mM/kg alone, tumor excised 10 days after implantation
[4] = compound 4 0.2 mM/kg alone, day 10
[5] = compound 4 0.4 mM/kg alone, day 10
[6] = compound 4 0.8 mM/kg alone, day 10

Compound: CC(C)COC(=O)C1(F)C(=O)NC(=O)NC1O/N=C/c1ccco1 (centres unmarked) [compound 4, Isobutyl 5-fluoro-4-[(E)-furfurylideneaminooxy]-2,6-dioxohexahydropyrimidine-5-carboxylate]
- T/C [1, 3]: 54%
- Tumor weight [1, 3]: 138 mg
- T/C [1, 4]: 42%
- Tumor weight [1, 4]: 107 mg
- T/C [1, 5]: 31%
- Tumor weight [1, 5]: 80 mg
- T/C [1, 6]: 19%
- Tumor weight [1, 6]: 49 mg
- T/C [2, 3]: 96%
- Tumor weight [2, 3]: 190 mg
- T/C [2, 4]: 29%
- Tumor weight [2, 4]: 57 mg
- T/C [2, 5]: 1%
- Tumor weight [2, 5]: 2 mg
- T/C [2, 6]: 0%
- Tumor weight [2, 6]: 0 mg

Compound: O=c1cc[nH]c(=O)[nH]1 [uracil]
- T/C ([1]; uracil 0.4 mM/kg alone, day 10): 125%
- Tumor weight ([1]; uracil 0.4 mM/kg alone, day 10): 319 mg
- T/C ([1]; uracil 0.8 mM/kg alone, day 10): 224%
- Tumor weight ([1]; uracil 0.8 mM/kg alone, day 10): 572 mg
- T/C ([1]; uracil 1.6 mM/kg alone, day 10): 197%
- Tumor weight ([1]; uracil 1.6 mM/kg alone, day 10): 502 mg
- T/C ([1]; uracil 3.2 mM/kg alone, day 10): 169%
- Tumor weight ([1]; uracil 3.2 mM/kg alone, day 10): 432 mg
- T/C ([2]; uracil 0.4 mM/kg alone, day 10): 113%
- Tumor weight ([2]; uracil 0.4 mM/kg alone, day 10): 223 mg
- T/C ([2]; uracil 0.8 mM/kg alone, day 10): 87%
- Tumor weight ([2]; uracil 0.8 mM/kg alone, day 10): 173 mg
- T/C ([2]; uracil 1.6 mM/kg alone, day 10): 86%
- Tumor weight ([2]; uracil 1.6 mM/kg alone, day 10): 170 mg
- T/C ([2]; uracil 3.2 mM/kg alone, day 10): 98%
- Tumor weight ([2]; uracil 3.2 mM/kg alone, day 10): 194 mg
